The record followed here is patent publication US12240830B2, “Fused ring heteroaryl compounds and use thereof” (BiSiChem Co., Ltd., priority 2021, dated 2025).

The structures appear in SMILES notation.

This test addresses T1, ALK5 (Homo sapiens, UniProt P36897).
T1 construct: Cells were seeded at 3×10^4/well in 24-well plates were transiently transfected with 500 ng of (CAGA)-12-luciferase reporter construct; endogenous in cells; host or cells: Hs578T (ATCC HTB-22)
T1 sequence (P36897 34-503): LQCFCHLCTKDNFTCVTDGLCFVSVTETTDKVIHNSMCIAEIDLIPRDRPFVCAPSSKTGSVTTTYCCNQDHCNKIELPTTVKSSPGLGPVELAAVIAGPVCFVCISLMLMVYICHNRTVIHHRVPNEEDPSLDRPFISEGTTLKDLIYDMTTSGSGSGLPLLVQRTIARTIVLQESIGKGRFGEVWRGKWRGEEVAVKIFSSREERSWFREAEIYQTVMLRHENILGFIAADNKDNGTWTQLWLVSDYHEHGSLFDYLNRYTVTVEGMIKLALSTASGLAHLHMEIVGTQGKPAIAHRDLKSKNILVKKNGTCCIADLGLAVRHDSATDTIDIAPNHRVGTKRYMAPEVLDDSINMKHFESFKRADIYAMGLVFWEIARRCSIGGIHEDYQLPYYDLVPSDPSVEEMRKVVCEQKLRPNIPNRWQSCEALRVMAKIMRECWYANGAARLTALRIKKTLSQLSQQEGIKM
The test can be described thus: Cell-based luciferase reporter assay for ALK5 activity. The following applies: (CAGA)-12-luciferase reporter, cells stimulated with 2 ng/ml recombinant TGF-β1 for 12 hours; Hs578T cells; read-out: Relative luciferase activity: IC50 value. On the procedure: Human cancer cell lines Hs578T (ATCC® HTB-22™) cells were grown in DMEM (Dulbecco's modified Eagle's medium) supplemented with 10% fetal bovine serum and 1% mixture of penicillin and streptomycin (Gibco). Cells were maintained at 37° C. in a humidified 5% CO2− atmosphere.
Cell-Based Luciferase Reporter Assay for ALK5 Activity
Cells were seeded at 3×10^4/well in 24-well plates were transiently transfected with 500 ng of (CAGA)-12-luciferase reporter construct and 5 ng of pRL-TK Renilla luciferase vector (Promega, Madison, WI), an internal control for transfection efficiency, using Lipofectamine 3000 reagent (Thermo Fisher Scientific, Waltham, USA). After 24 h transfection, the cells were pre-treated with ALK5 inhibitor in dose-dependent manner. And then, Cells stimulated with 2 ng/ml recombinant TGF-β1 for 12 hours. After the stimulation, the firefly and Renilla luciferase activities were measured by Dual-Luciferase Reporter Assay (Promega). […]
Background: Reporter assays use an easily measured gene product as a stand-in for the process of interest.
Consider `Cc1cccc(-c2[nH]c(NCc3cccc(C)c3F)nc2-c2ccc3c(cnn3C)c2)n1` [Example 17, N-(2-fluoro-3-methylbenzyl)-4-(1-methyl-1H-indazol-5-yl)-5-(6-methylpyridin-2-yl)-1H-imidazol-2-amine], for which the IC50 was 10 to 100 nM.

On to `Cc1ccc(CNc2nc(-c3ccc4c(cnn4C)c3)c(-c3cccc(C)n3)[nH]2)c(F)c1` [Example 18, N-(2-fluoro-4-methylbenzyl)-4-(1-methyl-1H-indazol-5-yl)-5-(6-methylpyridin-2-yl)-1H-imidazol-2-amine], for which the IC50 is less than 10 nM.

Regarding `Cc1cccc(-c2[nH]c(NCc3ccc(C)c(F)c3)nc2-c2ccc3c(cnn3C)c2)n1` [Example 19, N-(3-fluoro-4-methylbenzyl)-4-(1-methyl-1H-indazol-5-yl)-5-(6-methyl-pyridine-2-yl)-1H-imidazol-2-amine], the IC50 was less than 10 nM. `Cc1cccc(-c2[nH]c(NCc3cccc(F)c3)nc2-c2ccc3c(cnn3S(C)(=O)=O)c2)n1` [Example 22, N-(3-fluorobenzyl)-5-(6-methylpyridin-2-yl)-4-(1-(methylsulfonyl)-1H-indazol-5-yl)-1H-imidazol-2-amine]: the IC50 is greater than 100 nM.

For the compound `Cc1cccc(-c2[nH]c(NCc3cccc(Cl)c3F)nc2-c2ccc3c(cnn3C)c2)n1` [Example 23, N-(3-chloro-2-fluorobenzyl)-4-(1-methyl-1H-indazol-5-yl)-5-(6-methylpyridin-2-yl)-1H-imidazol-2-amine], the IC50 is less than 10 nM. Take `Cc1cccc(-c2[nH]c(NCc3cccc(F)c3)nc2-c2ccc3c(cnn3C(C)(C)CO)c2)n1` [Example 26, 2-(5-(2-((3-fluorobenzyl)amino)-5-(6-methylpyridin-2-yl)-1H-imidazol-4-yl)-1H-indazol-1-yl)-2-methylpropan-1-ol]: the IC50 is greater than 100 nM. In the case of `Cc1cccc(-c2[nH]c(NCc3cccc(Cl)c3F)nc2-c2ccc3c(cnn3C(F)F)c2)n1` [Example 27], the IC50 lay in the range of 10 to 100 nM. With `Cc1cccc(-c2[nH]c(NCc3ccc(Cl)c(Cl)c3)nc2-c2ccc3c(cnn3C(F)F)c2)n1` [Example 28, N-(3,4-dichlorobenzyl)-4-(1-(difluoromethyl)-1H-indazol-5-yl)-5-(6-methyl-pyridin-2-yl)-1H-imidazol-2-amine], the IC50 was 10 to 100 nM. `Cc1cccc(-c2[nH]c(NCc3ccc(F)c(F)c3)nc2-c2ccc3c(cnn3C(F)F)c2)n1` [Example 29, N-(3,4-difluorobenzyl)-4-(1-(difluoromethyl)-1H-indazol-5-yl)-5-(6-methyl-pyridin-2-yl)-1H-imidazol-2-amine]: the IC50 was 10 to 100 nM.

Regarding `Cc1cccc(-c2[nH]c(NCc3cccc(F)c3)nc2-c2cnc3c(cnn3C)c2)n1` [Example 31, N-(3-fluorobenzyl)-4-(1-methyl-1H-pyrazolo[3,4-b]pyridin-5-yl)-5-(6-methyl-pyridin-2-yl)-1H-imidazol-2-amine], the IC50 was less than 10 nM.

For `Cc1cccc(-c2[nH]c(NCc3cccc(F)c3)nc2-c2ccc3c(cnn3C)n2)n1` [Example 32, N-(3-fluorobenzyl)-4-(1-methyl-1H-pyrazolo[4,3-b]pyridin-5-yl)-5-(6-methyl-pyridin-2-yl)-1H-imidazol-2-amine], the half-inhibitory concentration (IC50) was greater than 100 nM.

Regarding `Cc1cccc(-c2[nH]c(NCc3cccc(F)c3)nc2-c2cc3cnn(C)c3cn2)n1` [Example 33, N-(3-fluorobenzyl)-4-(1-methyl-1H-pyrazolo[3,4-c]pyridin-5-yl)-5-(6-methyl-pyridin-2-yl)-1H-imidazol-2-amine], the IC50 is less than 10 nM. The same measure for `Cc1cccc(-c2[nH]c(NCc3cccc(F)c3F)nc2-c2ccc3c(cnn3C)c2)n1` [Example 35, N-(2,3-difluorobenzyl)-4-(1-methyl-1H-indazol-5-yl)-5-(6-methylpyridin-2-yl)-1H-imidazol-2-amine]: 10 to 100 nM. For the compound `Cc1cccc(-c2[nH]c(NCc3ccc(F)cc3F)nc2-c2ccc3c(cnn3C)c2)n1` [Example 36, N-(2,4-difluorobenzyl)-4-(1-methyl-1H-indazol-5-yl)-5-(6-methylpyridin-2-yl)-1H-imidazol-2-amine], the 50% inhibitory concentration (IC50) lay in the range of 10 to 100 nM. As for `Cc1cccc(-c2[nH]c(NCc3cccc(F)c3)nc2-c2cnc3[nH]ncc3c2)n1` [Example 38, N-(3-fluorobenzyl)-5-(6-methylpyridin-2-yl)-4-(1H-pyrazolo[3,4-b]pyridin-5-yl)-1H-imidazol-2-amine], the IC50 lay in the range of 10 to 100 nM.

A word on the IC50: it is the point on the concentration scale where inhibition reaches its midpoint.
